ChEMBL document CHEMBL5303765, “Data for DCP probe BAY-7081” (2023)

Key:
[1] = target: Serine/threonine-protein kinase pim-1 (Homo sapiens) (UniProt P11309); test: PIM1 SGC Tm panel (DSF); conditions: for ΔTm: Compound concentration 10.0 uM
[2] = target: Dual specificity tyrosine-phosphorylation-regulated kinase 1A (Homo sapiens) (UniProt Q13627); test: DYRK1A SGC Tm panel (DSF); conditions: for ΔTm: Compound concentration 10.0 uM
[3] = target: Dual specificity protein kinase CLK3 (Homo sapiens) (UniProt P49761); test: CLK3 SGC Tm panel (DSF); conditions: for ΔTm: Compound concentration 10.0 uM
Sequence of Dual specificity protein kinase CLK3 (Homo sapiens) (P49761 whole entry, looked up): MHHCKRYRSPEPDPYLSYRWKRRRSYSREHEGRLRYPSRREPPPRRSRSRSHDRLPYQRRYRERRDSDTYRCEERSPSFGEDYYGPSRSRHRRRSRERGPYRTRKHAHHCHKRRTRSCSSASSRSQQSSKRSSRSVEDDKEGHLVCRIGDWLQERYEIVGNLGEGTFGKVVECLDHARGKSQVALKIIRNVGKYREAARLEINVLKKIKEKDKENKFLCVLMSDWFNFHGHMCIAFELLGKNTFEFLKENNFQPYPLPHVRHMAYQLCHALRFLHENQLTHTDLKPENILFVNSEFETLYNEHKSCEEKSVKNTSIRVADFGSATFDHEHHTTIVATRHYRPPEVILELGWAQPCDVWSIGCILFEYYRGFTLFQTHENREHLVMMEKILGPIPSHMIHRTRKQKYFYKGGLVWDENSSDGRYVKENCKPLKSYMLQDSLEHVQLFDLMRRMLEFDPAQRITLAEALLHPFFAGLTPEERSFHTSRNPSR

[4] = target: Ephrin type-A receptor 5 (Homo sapiens) (UniProt P54756); test: EPHA5 SGC Tm panel (DSF); conditions: for ΔTm: Compound concentration 10.0 uM
Sequence of Ephrin type-A receptor 5 (Homo sapiens) (P54756 whole entry): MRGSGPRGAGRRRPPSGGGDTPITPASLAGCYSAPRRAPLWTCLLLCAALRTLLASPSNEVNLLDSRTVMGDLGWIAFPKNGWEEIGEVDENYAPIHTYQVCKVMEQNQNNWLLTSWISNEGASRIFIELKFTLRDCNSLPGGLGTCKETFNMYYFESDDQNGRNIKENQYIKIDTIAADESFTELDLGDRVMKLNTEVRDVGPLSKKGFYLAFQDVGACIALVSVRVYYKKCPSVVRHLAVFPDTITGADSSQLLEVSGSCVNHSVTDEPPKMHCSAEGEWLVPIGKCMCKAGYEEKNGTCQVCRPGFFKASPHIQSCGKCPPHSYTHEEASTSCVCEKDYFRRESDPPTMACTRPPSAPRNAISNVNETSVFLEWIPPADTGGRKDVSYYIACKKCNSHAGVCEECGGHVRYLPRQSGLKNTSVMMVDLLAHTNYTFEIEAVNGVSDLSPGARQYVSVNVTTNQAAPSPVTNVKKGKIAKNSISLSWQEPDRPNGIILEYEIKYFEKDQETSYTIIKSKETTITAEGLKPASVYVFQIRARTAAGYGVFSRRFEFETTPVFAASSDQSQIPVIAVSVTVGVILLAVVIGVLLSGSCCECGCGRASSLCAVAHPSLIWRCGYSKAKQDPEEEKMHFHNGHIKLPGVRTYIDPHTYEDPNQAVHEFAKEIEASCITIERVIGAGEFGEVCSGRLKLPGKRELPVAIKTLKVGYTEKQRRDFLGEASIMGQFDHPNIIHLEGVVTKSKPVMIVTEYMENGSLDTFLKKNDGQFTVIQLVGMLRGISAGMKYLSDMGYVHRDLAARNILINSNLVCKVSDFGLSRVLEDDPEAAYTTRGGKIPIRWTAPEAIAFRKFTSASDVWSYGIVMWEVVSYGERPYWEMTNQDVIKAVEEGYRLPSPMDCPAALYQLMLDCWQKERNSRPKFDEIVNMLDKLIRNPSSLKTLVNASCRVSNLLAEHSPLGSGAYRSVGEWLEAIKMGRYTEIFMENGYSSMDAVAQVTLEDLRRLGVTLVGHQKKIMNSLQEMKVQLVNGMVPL

[5] = target: T1, Dual specificity mitogen-activated protein kinase kinase 4 (Homo sapiens) (UniProt P45985); test: MAP2K4 SGC Tm panel (DSF); conditions: for ΔTm: Compound concentration 10.0 uM
T1 sequence (whole entry): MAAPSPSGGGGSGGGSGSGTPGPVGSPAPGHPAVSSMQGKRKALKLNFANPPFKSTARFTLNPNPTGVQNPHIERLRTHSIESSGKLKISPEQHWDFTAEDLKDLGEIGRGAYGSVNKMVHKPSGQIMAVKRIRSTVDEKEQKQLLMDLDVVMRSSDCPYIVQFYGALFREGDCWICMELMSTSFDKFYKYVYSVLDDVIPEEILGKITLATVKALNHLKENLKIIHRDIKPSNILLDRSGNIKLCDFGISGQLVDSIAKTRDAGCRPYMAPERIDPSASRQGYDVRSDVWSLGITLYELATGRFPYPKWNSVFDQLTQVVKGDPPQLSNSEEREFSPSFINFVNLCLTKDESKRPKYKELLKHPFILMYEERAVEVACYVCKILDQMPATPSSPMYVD

[6] = target: Serine/threonine-protein kinase WNK1 (Homo sapiens) (UniProt Q9H4A3); test: WNK1 SGC Tm panel (DSF); conditions: for ΔTm: Compound concentration 10.0 uM
[7] = target: Casein kinase I isoform epsilon (Homo sapiens) (UniProt P49674); test: CSNK1E SGC Tm panel (DSF); conditions: for ΔTm: Compound concentration 10.0 uM
Sequence of Casein kinase I isoform epsilon (Homo sapiens) (P49674 whole entry, looked up, canonical isoform): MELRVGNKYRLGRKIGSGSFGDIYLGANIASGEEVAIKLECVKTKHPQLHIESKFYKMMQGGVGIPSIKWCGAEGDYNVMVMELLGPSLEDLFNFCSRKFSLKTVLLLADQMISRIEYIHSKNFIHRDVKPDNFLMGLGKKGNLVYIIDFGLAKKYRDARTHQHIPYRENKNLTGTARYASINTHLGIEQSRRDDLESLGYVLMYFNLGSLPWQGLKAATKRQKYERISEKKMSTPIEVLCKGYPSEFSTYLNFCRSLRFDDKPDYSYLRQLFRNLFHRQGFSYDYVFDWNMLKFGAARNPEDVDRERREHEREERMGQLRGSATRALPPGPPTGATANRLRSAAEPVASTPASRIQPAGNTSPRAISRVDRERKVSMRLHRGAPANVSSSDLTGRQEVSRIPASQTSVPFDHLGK

[8] = target: Histamine H1 receptor (Homo sapiens) (UniProt P35367); conditions: Compound concentration 10.0 uM
Sequence of Histamine H1 receptor (Homo sapiens) (P35367 whole entry): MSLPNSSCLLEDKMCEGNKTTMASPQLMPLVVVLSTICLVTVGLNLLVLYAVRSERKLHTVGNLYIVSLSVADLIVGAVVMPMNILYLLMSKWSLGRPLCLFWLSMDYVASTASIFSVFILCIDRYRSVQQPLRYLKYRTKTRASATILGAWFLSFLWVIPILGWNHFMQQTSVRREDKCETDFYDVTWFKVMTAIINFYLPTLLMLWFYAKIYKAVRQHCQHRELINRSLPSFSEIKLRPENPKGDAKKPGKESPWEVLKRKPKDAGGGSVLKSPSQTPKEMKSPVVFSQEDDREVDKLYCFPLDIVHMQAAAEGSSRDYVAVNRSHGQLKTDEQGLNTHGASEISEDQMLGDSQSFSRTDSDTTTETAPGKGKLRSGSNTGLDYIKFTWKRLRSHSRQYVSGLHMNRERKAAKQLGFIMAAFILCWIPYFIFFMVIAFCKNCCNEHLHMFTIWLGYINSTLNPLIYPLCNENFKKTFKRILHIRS

[9] = target: T2, Muscarinic acetylcholine receptor M4 (Homo sapiens) (UniProt P08173); conditions: Compound concentration 10.0 uM
T2 sequence (whole entry): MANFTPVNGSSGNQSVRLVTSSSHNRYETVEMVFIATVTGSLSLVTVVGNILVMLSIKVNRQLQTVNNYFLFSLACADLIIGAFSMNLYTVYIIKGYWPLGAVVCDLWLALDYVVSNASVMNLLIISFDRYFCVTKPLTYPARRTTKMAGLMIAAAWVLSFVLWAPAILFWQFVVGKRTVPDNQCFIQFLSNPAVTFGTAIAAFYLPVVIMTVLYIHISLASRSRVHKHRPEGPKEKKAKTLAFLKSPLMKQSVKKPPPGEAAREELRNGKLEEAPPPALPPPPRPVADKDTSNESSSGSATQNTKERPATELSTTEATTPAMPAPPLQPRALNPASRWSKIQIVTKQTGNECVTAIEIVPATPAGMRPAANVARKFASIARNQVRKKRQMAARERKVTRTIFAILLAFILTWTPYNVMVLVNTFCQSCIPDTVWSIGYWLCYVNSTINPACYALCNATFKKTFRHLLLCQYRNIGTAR

[10] = target: Serine/threonine-protein kinase pim-3 (Homo sapiens) (UniProt Q86V86); test: PIM3 SGC Tm panel (DSF); conditions: for ΔTm: Compound concentration 10.0 uM
[11] = target: D(1B) dopamine receptor (Homo sapiens) (UniProt P21918); conditions: Compound concentration 10.0 uM
Sequence of D(1B) dopamine receptor (Homo sapiens) (P21918 whole entry): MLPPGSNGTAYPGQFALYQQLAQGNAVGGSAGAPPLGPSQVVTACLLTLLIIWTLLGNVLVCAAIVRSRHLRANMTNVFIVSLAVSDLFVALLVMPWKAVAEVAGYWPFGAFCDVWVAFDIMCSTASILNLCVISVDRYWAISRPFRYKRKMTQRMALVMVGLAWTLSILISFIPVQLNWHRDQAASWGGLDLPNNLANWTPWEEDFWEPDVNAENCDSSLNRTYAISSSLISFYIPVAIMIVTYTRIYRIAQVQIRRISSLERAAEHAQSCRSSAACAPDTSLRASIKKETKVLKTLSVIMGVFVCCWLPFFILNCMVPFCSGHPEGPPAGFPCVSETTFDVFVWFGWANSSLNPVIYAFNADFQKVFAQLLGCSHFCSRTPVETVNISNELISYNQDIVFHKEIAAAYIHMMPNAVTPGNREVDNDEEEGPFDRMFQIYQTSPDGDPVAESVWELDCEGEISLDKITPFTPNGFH

[12] = target: Proto-oncogene tyrosine-protein kinase Src (Homo sapiens) (UniProt P12931); test: SRC SGC Tm panel (DSF); conditions: for ΔTm: Compound concentration 10.0 uM
[13] = target: D(3) dopamine receptor (Homo sapiens) (UniProt P35462); conditions: Compound concentration 10.0 uM
Sequence of D(3) dopamine receptor (Homo sapiens) (P35462 whole entry): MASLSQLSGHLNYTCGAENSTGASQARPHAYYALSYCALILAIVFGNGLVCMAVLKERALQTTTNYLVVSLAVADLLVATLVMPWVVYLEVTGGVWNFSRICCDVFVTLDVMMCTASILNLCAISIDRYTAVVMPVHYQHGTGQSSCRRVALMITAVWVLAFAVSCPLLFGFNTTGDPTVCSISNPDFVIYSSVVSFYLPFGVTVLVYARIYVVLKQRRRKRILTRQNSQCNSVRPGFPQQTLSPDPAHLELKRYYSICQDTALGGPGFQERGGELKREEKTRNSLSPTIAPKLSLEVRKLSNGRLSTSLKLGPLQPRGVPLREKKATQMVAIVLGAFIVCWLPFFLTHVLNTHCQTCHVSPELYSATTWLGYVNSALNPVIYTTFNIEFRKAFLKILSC

[14] = target: 5-hydroxytryptamine receptor 1B (Homo sapiens) (UniProt P28222); conditions: Compound concentration 10.0 uM
Sequence of 5-hydroxytryptamine receptor 1B (Homo sapiens) (P28222 whole entry): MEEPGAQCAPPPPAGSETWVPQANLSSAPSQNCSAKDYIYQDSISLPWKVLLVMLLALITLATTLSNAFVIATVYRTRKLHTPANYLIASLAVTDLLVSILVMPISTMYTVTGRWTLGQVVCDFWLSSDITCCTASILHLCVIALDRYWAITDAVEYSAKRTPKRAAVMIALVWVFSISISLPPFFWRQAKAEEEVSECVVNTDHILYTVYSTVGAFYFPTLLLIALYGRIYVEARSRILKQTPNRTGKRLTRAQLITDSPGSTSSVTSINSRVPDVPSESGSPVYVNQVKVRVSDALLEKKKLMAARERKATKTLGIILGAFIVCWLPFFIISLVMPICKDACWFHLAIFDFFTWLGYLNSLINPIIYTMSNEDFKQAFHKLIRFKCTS

[15] = target: T3, Alpha-2A adrenergic receptor (Homo sapiens) (UniProt P08913); conditions: Compound concentration 10.0 uM
T3 sequence (whole entry): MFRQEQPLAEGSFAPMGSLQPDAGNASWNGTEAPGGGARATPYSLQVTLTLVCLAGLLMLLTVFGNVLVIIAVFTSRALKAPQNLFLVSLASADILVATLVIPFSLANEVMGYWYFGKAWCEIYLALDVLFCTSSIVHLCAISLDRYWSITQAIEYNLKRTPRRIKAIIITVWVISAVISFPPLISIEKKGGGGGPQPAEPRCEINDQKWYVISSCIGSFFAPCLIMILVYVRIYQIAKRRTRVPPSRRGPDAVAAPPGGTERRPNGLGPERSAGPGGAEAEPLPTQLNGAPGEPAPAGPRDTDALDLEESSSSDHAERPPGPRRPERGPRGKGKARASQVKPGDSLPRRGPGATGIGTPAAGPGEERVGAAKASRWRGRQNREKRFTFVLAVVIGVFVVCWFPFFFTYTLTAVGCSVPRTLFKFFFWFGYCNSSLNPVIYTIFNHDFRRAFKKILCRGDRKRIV

[16] = target: Beta-3 adrenergic receptor (Homo sapiens) (UniProt P13945); conditions: Compound concentration 10.0 uM
Sequence of Beta-3 adrenergic receptor (Homo sapiens) (P13945 whole entry, looked up): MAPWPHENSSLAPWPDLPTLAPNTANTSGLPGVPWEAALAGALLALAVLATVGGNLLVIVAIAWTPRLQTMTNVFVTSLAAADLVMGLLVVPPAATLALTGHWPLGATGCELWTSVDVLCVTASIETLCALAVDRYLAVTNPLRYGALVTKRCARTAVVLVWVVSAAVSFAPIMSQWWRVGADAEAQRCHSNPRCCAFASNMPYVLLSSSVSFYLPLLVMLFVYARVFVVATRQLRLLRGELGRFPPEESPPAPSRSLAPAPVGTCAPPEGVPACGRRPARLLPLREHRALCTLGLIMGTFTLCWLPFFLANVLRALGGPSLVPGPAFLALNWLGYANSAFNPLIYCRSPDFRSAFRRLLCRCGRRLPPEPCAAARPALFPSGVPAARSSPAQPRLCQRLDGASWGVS

Sequence of Serine/threonine-protein kinase pim-1 (Homo sapiens) (P11309 whole entry, looked up): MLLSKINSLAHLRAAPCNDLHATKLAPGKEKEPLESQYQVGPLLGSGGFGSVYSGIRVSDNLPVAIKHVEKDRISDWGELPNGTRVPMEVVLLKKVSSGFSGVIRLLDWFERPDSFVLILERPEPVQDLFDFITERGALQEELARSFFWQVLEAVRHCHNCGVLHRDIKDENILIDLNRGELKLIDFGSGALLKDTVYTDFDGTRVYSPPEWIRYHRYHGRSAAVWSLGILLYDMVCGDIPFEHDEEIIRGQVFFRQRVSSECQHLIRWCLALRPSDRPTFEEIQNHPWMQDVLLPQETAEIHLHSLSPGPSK

Structure (SMILES)	delta Tm Staurosporine positive control [1]	ΔTm [1]	delta Tm Staurosporine positive control [2]	ΔTm [2]	delta Tm Staurosporine positive control [3]	ΔTm [3]	delta Tm Staurosporine positive control [4]	ΔTm [4]	delta Tm Staurosporine positive control [5]	ΔTm [5]	delta Tm Staurosporine positive control [6]	ΔTm [6]	delta Tm Staurosporine positive control [7]	ΔTm [7]	inhibition [8]	inhibition [9]	delta Tm Staurosporine positive control [10]	ΔTm [10]	inhibition [11]	delta Tm Staurosporine positive control [12]	other results
CCC[C@@H]1CNCc2c1[nH]c(=O)c(C#N)c2N1CCC2(CC1)CC2	12.2	-0.124	9.05	0.743	5.3	-0.379	8.04	-0.589	11.8	-0.34	2.2	-0.301	3.12	-0.0146	4.72%	-5.05%	16.7	-0.32	4.19%	7.39	ΔTm [12]: -0.0953; inhibition [13]: -9.68%; inhibition [14]: 2.21%; inhibition [15]: 9.55%; inhibition [16]: -3.17%
CCC[C@H]1CNCc2c1[nH]c(=O)c(C#N)c2N1CCC2(CC1)CC2	12.2	-0.108	9.05	-0.256	5.3	-0.402	8.04	-0.544	11.8	-0.306	2.2	-0.456	3.12	-0.118	-2.94%	-3.14%	16.7	-0.159	2.11%	7.39	ΔTm [12]: -0.143; inhibition [13]: 12.3%; inhibition [14]: -6.99%; inhibition [15]: 5.64%; inhibition [16]: 3.76%
